Experimental data taken from US11331299B2, “Medicinal use of serrulatane diterpenes” (The University of Sydney, priority 2016, dated 2022).
Where two headings read alike, the source gives them in different places.

Tested on: 280 human cancer cell lines
Experiment: OncoPanel cell proliferation assay (10-day)
Format: cell-based
Details: Homo sapiens; for GI50: read-out: Cell Count GI50; for IC50: read-out: Cell Count IC50; for EC50: read-out: Cell Count EC50
[1] = C-4-II, C-4 II, Female GU - Cervix
[2] = C-33-A, C-33A, Female GU - Cervix
[3] = CAL-62, CAL-62, Endocrine - Thyroid
[4] = CCF-STTG1, CCF-STTG1, CNS - Glioma
[5] = CGTH-W-1, CGTH-W-1, Endocrine - Thyroid
[6] = CHP-212, CHP-212, CNS - Neuroblastoma
[7] = COLO-320-HSR, Colo 320 HSR, Colon
[8] = COLO-829, COLO 829, Skin (Melanoma)
[9] = COR-L105, COR-L105, Lung - NSCLC
[10] = Ca-Ski, Ca Ski, Female GU - Ovary

SMILES: CC(C)=CCC[C@H](C)[C@@H]1CC[C@@H](C)c2c1cc(C)c(O)c2O [Compound 4, 7,8-dihydroxyserrulat-14-ene]
- GI50 (BT-474, BT474, Breast): 25 µM
- IC50 (BT-474, BT474, Breast): 25.7 µM
- EC50 (BT-549, BT-549, Breast): 15.3 µM
- GI50 (BT-549, BT-549, Breast): 15.1 µM
- IC50 (BT-549, BT-549, Breast): 15.3 µM
- EC50 (BV-173, BV-173, Leukemia): 3.56 µM
- GI50 (BV-173, BV-173, Leukemia): 3.55 µM
- IC50 (BV-173, BV-173, Leukemia): 3.56 µM
- EC50 (BXPC-3, BxPC-3, Pancreas): 13.4 µM
- GI50 (BXPC-3, BxPC-3, Pancreas): 13.4 µM
- IC50 (BXPC-3, BxPC-3, Pancreas): 13.4 µM
- EC50 (BeWo, Placenta): 15.6 µM
- GI50 (BeWo, Placenta): 15.5 µM
- IC50 (BeWo, Placenta): 15.6 µM
- EC50 (C32, Skin (Melanoma)): 7.84 µM
- GI50 (C32, Skin (Melanoma)): 6.37 µM
- IC50 (C32, Skin (Melanoma)): 7.84 µM
- EC50 [1]: 12.6 µM
- GI50 [1]: 12.5 µM
- IC50 [1]: 12.6 µM
- EC50 [2]: 9.57 µM
- GI50 [2]: 9.42 µM
- IC50 [2]: 9.57 µM
- EC50 (CA46, CA46, Lymphoma): 4.06 µM
- GI50 (CA46, CA46, Lymphoma): 4.06 µM
- IC50 (CA46, CA46, Lymphoma): 4.06 µM
- EC50 (CAKI-1, Caki-1, Kidney): 14.4 µM
- GI50 (CAKI-1, Caki-1, Kidney): 14.1 µM
- IC50 (CAKI-1, Caki-1, Kidney): 14.4 µM
- EC50 (CAKI-2, Caki-2, Kidney): 13.1 µM
- GI50 (CAKI-2, Caki-2, Kidney): 13.5 µM
- IC50 (CAKI-2, Caki-2, Kidney): 13.6 µM
- EC50 (CAL-27, Cal 27, Head and Neck): 12.3 µM
- GI50 (CAL-27, Cal 27, Head and Neck): 12.2 µM
- IC50 (CAL-27, Cal 27, Head and Neck): 12.3 µM
- EC50 [3]: 5.36 µM
- GI50 [3]: 5.36 µM
- IC50 [3]: 5.36 µM
- EC50 (CAMA-1, CAMA-1, Breast): > 30 µM
- GI50 (CAMA-1, CAMA-1, Breast): > 30 µM
- IC50 (CAMA-1, CAMA-1, Breast): > 30 µM
- EC50 (CAPAN-1, Capan-1, Pancreas): > 30 µM
- GI50 (CAPAN-1, Capan-1, Pancreas): > 30 µM
- IC50 (CAPAN-1, Capan-1, Pancreas): > 30 µM
- EC50 [4]: 19.7 µM
- GI50 [4]: 16 µM
- IC50 [4]: 19.7 µM
- EC50 (CCRF-CEM, CCRFCEM, Leukemia): 4.92 µM
- GI50 (CCRF-CEM, CCRFCEM, Leukemia): 4.91 µM
- IC50 (CCRF-CEM, CCRFCEM, Leukemia): 4.93 µM
- EC50 (CEM/C1, CEM-C1, Leukemia): 1.47 µM
- GI50 (CEM/C1, CEM-C1, Leukemia): 1.47 µM
- IC50 (CEM/C1, CEM-C1, Leukemia): 1.47 µM
- EC50 (CFPAC-1, CFPAC-1, Pancreas): 25.2 µM
- GI50 (CFPAC-1, CFPAC-1, Pancreas): 25.1 µM
- IC50 (CFPAC-1, CFPAC-1, Pancreas): 25.2 µM
- EC50 [5]: 3.45 µM
- GI50 [5]: 3.47 µM
- IC50 [5]: 3.48 µM
- EC50 (CHL-1, CHL-1, Skin (Melanoma)): 11.9 µM
- GI50 (CHL-1, CHL-1, Skin (Melanoma)): 11.8 µM
- IC50 (CHL-1, CHL-1, Skin (Melanoma)): 11.9 µM
- EC50 [6]: 9.77 µM
- GI50 [6]: 9.74 µM
- IC50 [6]: 9.78 µM
- EC50 (CML-T1, CML-T1, Leukemia): 3.93 µM
- GI50 (CML-T1, CML-T1, Leukemia): 3.93 µM
- IC50 (CML-T1, CML-T1, Leukemia): 3.93 µM
- EC50 (COLO 201, Colo 201, Colon): 4.07 µM
- GI50 (COLO 201, Colo 201, Colon): 4.04 µM
- IC50 (COLO 201, Colo 201, Colon): 4.07 µM
- EC50 (COLO 205, Colo 205, Colon): 11.9 µM
- GI50 (COLO 205, Colo 205, Colon): 11.9 µM
- IC50 (COLO 205, Colo 205, Colon): 11.9 µM
- EC50 (COLO 320DM, Colon): 7.91 µM
- GI50 (COLO 320DM, Colon): 7.87 µM
- IC50 (COLO 320DM, Colon): 7.91 µM
- EC50 [7]: 5.15 µM
- GI50 [7]: 5.15 µM
- IC50 [7]: 5.16 µM
- EC50 [8]: 3.71 µM
- GI50 [8]: 3.29 µM
- IC50 [8]: 3.71 µM
- EC50 (COR-L23, COR-L23, Lung - NSCLC): 13.3 µM
- GI50 (COR-L23, COR-L23, Lung - NSCLC): 13.2 µM
- IC50 (COR-L23, COR-L23, Lung - NSCLC): 13.3 µM
- EC50 [9]: 8.66 µM
- GI50 [9]: 8.47 µM
- IC50 [9]: 8.66 µM
- EC50 (CRO-AP2, CRO-AP2, Lymphoma): 9.94 µM
- GI50 (CRO-AP2, CRO-AP2, Lymphoma): 9.88 µM
- IC50 (CRO-AP2, CRO-AP2, Lymphoma): 9.94 µM
- EC50 [10]: 17.6 µM
- GI50 [10]: 17.6 µM
- IC50 [10]: 17.6 µM
- EC50 (Calu-1, Calu1, Lung - NSCLC): 8.88 µM
- GI50 (Calu-1, Calu1, Lung - NSCLC): 8.77 µM
- IC50 (Calu-1, Calu1, Lung - NSCLC): 8.88 µM
- EC50 (Calu-6, Calu6, Lung - NSCLC): 25 µM
- GI50 (Calu-6, Calu6, Lung - NSCLC): 24.5 µM
- IC50 (Calu-6, Calu6, Lung - NSCLC): 25 µM
